In one test the target is LXR β LBD protein (Homo sapiens (Human), UniProt P55055). Kind of test: biochemical. The format is binding.
Test [1] deals with Gal4 DNA binding domain fused to the LBD of LXRα in HEK293 cells (Homo sapiens (Human), UniProt Q13133). Put plainly: LXR luciferase transcriptional reporter gene assay, agonist mode, LXRα. The format is cell-based. The conditions noted are these: for EC50: read-out: Cell LXRα EC50.
Test [2] has as its target Gal4 DNA binding domain fused to the LBD of LXRβ in HEK293 cells (Homo sapiens (Human), UniProt P55055). Put plainly: cell-based.
The mark [3] stands for this setting: Biological Test Example 1, read-out: LXRβ Binding Ki.
The mark [4] stands for this setting: Biological Test Example 2, agonist mode.
The mark [5] stands for this setting: Biological Test Example 2, agonist mode, read-out: Cell LXRβ EC50.

Read-outs that look alike come from different tables or passages of the source.

LXR β LBD protein, sequence (P55055 222-460 limits assumed): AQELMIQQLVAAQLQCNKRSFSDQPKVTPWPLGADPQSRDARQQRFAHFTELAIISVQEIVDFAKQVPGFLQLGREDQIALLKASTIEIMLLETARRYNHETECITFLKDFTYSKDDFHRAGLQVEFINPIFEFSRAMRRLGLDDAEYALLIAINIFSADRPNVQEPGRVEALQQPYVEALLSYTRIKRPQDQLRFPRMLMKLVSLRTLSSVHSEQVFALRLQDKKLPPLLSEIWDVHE
Gal4 DNA binding domain fused to the LBD of LXRβ in HEK293 cells, sequence (P55055 222-460 limits assumed): as above
Gal4 DNA binding domain fused to the LBD of LXRα in HEK293 cells, sequence (Q13133 209-447): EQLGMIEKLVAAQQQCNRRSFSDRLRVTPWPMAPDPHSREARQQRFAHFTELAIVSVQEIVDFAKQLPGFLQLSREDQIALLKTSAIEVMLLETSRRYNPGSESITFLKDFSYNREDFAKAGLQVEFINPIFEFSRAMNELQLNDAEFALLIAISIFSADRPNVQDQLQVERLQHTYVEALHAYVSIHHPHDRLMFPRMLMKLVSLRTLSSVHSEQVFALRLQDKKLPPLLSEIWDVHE

One may read the Ki as the dissociation constant of the complex between target and ligand, obtained from inhibition or displacement. As a reminder, the EC50 is the midpoint of the concentration-response curve. With `CS(=O)(=O)c1cccc(N2CCN(CC3(F)CCN(CC(F)(F)F)CC3)[C@@H](c3ccc(F)cc3)C2)c1` [48-57, (S)-1-((4-fluoro-1-(2,2,2-trifluoroethyl)piperidin-4-yl)methyl)-2-(4-fluorophenyl)-4-(3-(methylsulfonyl)phenyl)piperazine], the Ki at LXR β LBD protein (setting [3]) stood at 492 nM. Moreover, the “Cell LXRα efficacy” value in test [1] is 4500 (37) %. Moreover, the EC50 was 4.5 µM in test [1] (setting [4]) and 1270 nM in test [2]. The “Cell LXRβ efficacy” value in test [2] (setting [4]) is 1272 (13) %.

As for `CSCc1cnc(N2CCN(c3ccc(F)c(S(C)(=O)=O)c3)C[C@H]2C(C)C)nc1C(F)(F)F` [15-8, (R)-2-(4-(4-fluoro-3-(methylsulfonyl)phenyl)-2-isopropylpiperazin-1-yl)-5-((methylthio)methyl)-4-(trifluoromethyl)pyrimidine], the Ki at LXR β LBD protein (read-out: LXRβ Binding Ki) turned out to be 1 nM. Also, in test [1], the “Cell LXRα efficacy” value was 219 (44) %. For the same molecule, the EC50 turned out to be 0.219 µM in test [1] (agonist mode) and 34 nM in test [2]. Besides, in test [2] (agonist mode), the “Cell LXRβ efficacy” value was 34 (35) %.

In the case of `CS(=O)(=O)c1cccc(N2CCN(C[C@H]3CC[C@]4(CC3)CC4(F)F)[C@H](c3ccccc3)C2)c1` [48-72, (R)-1-(((3R,6r)-1,1-difluorospiro[2.5]octan-6-yl)methyl)-4-(3-(methylsulfonyl)phenyl)-2-phenylpiperazine], the Ki on LXR β LBD protein (setting [3]) turned out to be 825 nM. In test [1], the “Cell LXRα efficacy” value is given as 7222 (11) % and the EC50 came out at 7.22 µM. In addition, the “Cell LXRβ efficacy” value in test [2] (setting [4]) was 31%. The EC50 in test [2] (setting [5]) turned out to be 2880 nM.

Consider `CS(=O)(=O)c1cccc(N2CCN(C[C@H]3CC[C@@]4(CC3)CC4(F)F)[C@H](c3ccccc3)C2)c1` (single isomer, unassigned) [48-70], for which, on LXR β LBD protein (setting [3]), the inhibition constant Ki stood at 750 nM. The “Cell LXRα efficacy” value in test [1] was 9091 (26) %. In addition, the EC50 in test [1] is 9.09 µM; in test [2] (setting [5]), 3730 nM. In addition, in test [2] (setting [4]), the “Cell LXRβ efficacy” value was 58%.

As to `CC(C)[C@@H]1CN(c2ccc(F)c(S(C)(=O)=O)c2)CCN1c1ncc(C(=O)N2CC(NC(=O)OC(C)(C)C)C2)c(C(F)(F)F)n1` [17-21, tert-butyl (R)-(1-(2-(4-(4-fluoro-3-(methylsulfonyl)phenyl)-2-isopropylpiperazin-1-yl)-4-(trifluoromethyl)pyrimidine-5-carbonyl)azetidin-3-yl)carbamate], the Ki at LXR β LBD protein (read-out: LXRβ Binding Ki) was found to be 111 nM. Moreover, the results for the concentration giving a half-maximal response (EC50) in test [1] (agonist mode) and in test [2] were greater than 20 µM and greater than 20000 nM, respectively.

For `CCOC(=O)c1cnc(N2CCN(c3ccc(F)c(S(C)(=O)=O)c3)C[C@H]2C2CC2)nc1C(F)(F)F` [9-4, ethyl (R)-2-(2-cyclopropyl-4-(4-fluoro-3-(methylsulfonyl)phenyl)piperazin-1-yl)-4-(trifluoromethyl)pyrimidine-5-carboxylate], the Ki at LXR β LBD protein (read-out: LXRβ Binding Ki) amounted to 13 nM. In addition, in test [1], the “Cell LXRα efficacy” value is recorded as 1415 (37) %. For the same molecule, the EC50 in test [1] (agonist mode) is 1.41 µM; in test [2] it was 318 nM. Besides, the “Cell LXRβ efficacy” value in test [2] (agonist mode) is 318 (27) %.

On to `CC(C)[C@@H]1CN(c2ccc(F)c(S(C)(=O)=O)c2)CCN1c1ncc(C#N)c(C(F)(F)F)n1` [7-21, (R)-2-(4-(4-fluoro-3-(methylsulfonyl)phenyl)-2-isopropylpiperazin-1-yl)-4-(trifluoromethyl)pyrimidine-5-carbonitrile], for which the Ki at LXR β LBD protein (read-out: LXRβ Binding Ki) was determined as 9 nM. Besides, the “Cell LXRα efficacy” value in test [1] is listed as 549 (86) %. Besides, the EC50 is 0.549 µM in test [1] (agonist mode) and 152 nM in test [2]. Besides, the “Cell LXRβ efficacy” value in test [2] (agonist mode) is listed as 152 (65) %.

On to `CS(=O)(=O)c1cccc(N2CCN(Cc3ccc(C(F)(F)F)c(Br)c3)C(c3ccccc3)C2)c1` (stereo not shown) [46-37, 1-(3-bromo-4-(trifluoromethyl)benzyl)-4-(3-(methylsulfonyl)phenyl)-2-phenylpiperazine], for which the Ki on LXR β LBD protein (read-out: LXRβ Binding Ki) was 30 nM. Moreover, in test [1], the “Cell LXRα efficacy” value is on record as 3451 (52) %. In addition, the EC50 in test [1] (agonist mode) worked out at 3.45 µM; in test [2], 1190 nM. Also, the “Cell LXRβ efficacy” value in test [2] (agonist mode) is recorded as 1194 (55) %.

As to `CS(=O)(=O)c1cccc(N2CCN(C[C@H]3CC[C@H](C(F)(F)F)CC3)[C@@H](c3ccccc3Cl)C2)c1` (single isomer, unassigned) [48-46], the Ki at LXR β LBD protein (setting [3]) was found to be 27 nM. Also, the “Cell LXRα efficacy” value in test [1] was 1908 (35) %. Also, the values for the EC50 in test [1] and in test [2] (setting [5]) were 1.91 µM and 910 nM, respectively. The “Cell LXRβ efficacy” value in test [2] (setting [4]) came to 35%.

Turning to `CC(C)(O)c1cc(CN2CCN(c3cccc(S(C)(=O)=O)c3)C[C@@H]2c2ccccc2)ccc1C(F)(F)F` [10-13, (S)-2-(5-((4-(3-(methylsulfonyl)phenyl)-2-phenylpiperazin-1-yl)methyl)-2-(trifluoromethyl)phenyl)propan-2-ol], on LXR β LBD protein (read-out: LXRβ Binding Ki), the Ki was 226 nM. Further, the EC50 was greater than 20 µM in test [1] (agonist mode) and greater than 20000 nM in test [2].

With `C[C@H](c1ccc(C(F)(F)F)cc1)N1CCN(c2cccc(S(C)(=O)=O)c2)C[C@@H]1c1ccccc1` (single isomer, unassigned) [46-18], the inhibition constant (Ki) at LXR β LBD protein was found to be 35 nM. Further, in test [1], the “Cell LXRα efficacy” value is 4598 (45) % and the EC50 amounted to 4.6 µM. Besides, in test [2], the “Cell LXRβ efficacy” value was 1434 (31) % and the EC50 amounted to 1430 nM.

In turn, `CON(C)C(=O)c1cnc(N2CCN(c3ccc(F)c(S(C)(=O)=O)c3)C[C@H]2c2ccc(F)cc2)nc1C(F)(F)F` [17-32, (R)-2-(4-(4-fluoro-3-(methylsulfonyl)phenyl)-2-(4-fluorophenyl)piperazin-1-yl)-N-methoxy-N-methyl-4-(trifluoromethyl)pyrimidine-5-carboxamide] came in with a Ki at LXR β LBD protein of 435 nM. Further, the figures for the EC50 in test [1] (agonist mode) and in test [2] were greater than 20 µM and greater than 20000 nM, respectively.

`CC(F)(F)[C@H]1CC[C@@H](CN2CCN(c3cccc(S(C)(=O)=O)c3)C[C@H]2c2ccccc2)CC1` (single isomer, unassigned) [48-29]: the Ki at LXR β LBD protein (read-out: LXRβ Binding Ki) turned out to be 378 nM. For the same molecule, in test [1], the “Cell LXRα efficacy” value is 6290 (43) % and the EC50 turned out to be 6.29 µM. Moreover, in test [2] (agonist mode), the “Cell LXRβ efficacy” value stood at 20%. The 50% effective concentration (EC50) in test [2] (agonist mode, read-out: Cell LXRβ EC50) worked out at 1500 nM.

In turn, `C[C@@H](c1ccc(C(F)(F)F)cc1)N1CCN(c2cccc(S(C)(=O)=O)c2)C[C@@H]1c1ccccc1` [46-16, (S)-4-(3-(methylsulfonyl)phenyl)-2-phenyl-1-((S)-1-(4-(trifluoromethyl)phenyl)ethyl)piperazine] yielded a Ki at LXR β LBD protein of 503 nM. In addition, the EC50 in test [1] was greater than 20 µM; in test [2] it was greater than 20000 nM.

Take `CNS(=O)(=O)c1cc(N2CCN(c3ncc(C(C)=O)c(C(F)(F)F)n3)[C@H](C(C)C)C2)ccc1F` [13-2, (R)-5-(4-(5-acetyl-4-(trifluoromethyl)pyrimidin-2-yl)-3-isopropylpiperazin-1-yl)-2-fluoro-N-methylbenzenesulfonamide]: at LXR β LBD protein, the Ki was 3 nM. Further, the “Cell LXRα efficacy” value in test [1] is on record as 290 (73) %. The concentration for a half-maximal effect (EC50) in test [1] was 0.29 µM; in test [2], 33 nM. Further, in test [2] (agonist mode), the “Cell LXRβ efficacy” value is listed as 33 (58) %.

Turning to `CC(C)[C@@H]1CN(c2ccc(F)c(S(C)(=O)=O)c2)CCN1c1ncc(C(=O)NC2CN(C(=O)OC(C)(C)C)C2)c(C(F)(F)F)n1` [17-20, tert-butyl (R)-3-(2-(4-(4-fluoro-3-(methylsulfonyl)phenyl)-2-isopropylpiperazin-1-yl)-4-(trifluoromethyl)pyrimidine-5-carboxamido)azetidine-1-carboxylate], the Ki at LXR β LBD protein (read-out: LXRβ Binding Ki) came out at 330 nM. Moreover, the EC50 in test [1] (agonist mode) is greater than 20 µM; in test [2], greater than 20000 nM.

For `CS(=O)(=O)c1cccc(N2CCN(C[C@@H]3C[C@H]4CC[C@@H](C3)N4CC(F)(F)F)[C@@H](c3ccccc3)C2)c1` [48-76, (1R,3s,5S)-3-(((S)-4-(3-(methylsulfonyl)phenyl)-2-phenylpiperazin-1-yl)methyl)-8-(2,2,2-trifluoroethyl)-8-azabicyclo[3.2.1]octane], the Ki at LXR β LBD protein (setting [3]) was 67 nM. Besides, in test [1], the “Cell LXRα efficacy” value is given as 1394 (54) % and the EC50 is 1.39 µM. Besides, the “Cell LXRβ efficacy” value in test [2] (setting [4]) was determined as 27%. For the same molecule, the EC50 in test [2] (setting [5]) was 374 nM.

Regarding `Cc1nc(N2CCN(c3ccc(F)c(S(C)(=O)=O)c3)CC2CC(F)(F)F)ncc1C(C)(C)O` (stereo not shown) [10-6, 2-(2-(4-(4-fluoro-3-(methylsulfonyl)phenyl)-2-(2,2,2-trifluoroethyl)piperazin-1-yl)-4-methylpyrimidin-5-yl)propan-2-ol], at LXR β LBD protein (read-out: LXRβ Binding Ki), the Ki amounted to 862 nM. The “Cell LXRα efficacy” value in test [1] was 9158 (22) %. In addition, the EC50 in test [1] (agonist mode) is 9.16 µM; in test [2], 1310 nM.

Take `CC1(C)CCC(O)(CN2CCN(c3cccc(S(C)(=O)=O)c3)C[C@@H]2c2ccccc2)CC1` [Cpd No 53-1, (S)-4,4-dimethyl-1-((4-(3-(methylsulfonyl)phenyl)-2-phenylpiperazin-1-yl)methyl)cyclohexan-1-ol]: at LXR β LBD protein (setting [3]), the Ki was determined as 121 nM. Also, the EC50 in test [2] worked out at 1030 nM. For the same molecule, the “Cell LXRβ efficacy” value in test [2] (setting [4]) was 1030 (53) %.

With `Cc1nc(N2CCN(c3cccc(S(C)(=O)=O)c3)C[C@H]2C(C)C)ccc1C(F)(F)F` [Cpd No 37-2, (R)-2-isopropyl-1-(6-methyl-5-(trifluoromethyl)pyridin-2-yl)-4-(3-(methylsulfonyl)phenyl)piperazine], at LXR β LBD protein (read-out: LXRβ Binding Ki), the Ki was found to be 2 nM. In addition, in test [2], the “Cell LXRβ efficacy” value is reported as 49 (98) % and a half-maximal effect (EC50) was put at 49 nM.

For the molecule `CC(C)[C@@H]1CN(c2ccc(CO)c(S(C)(=O)=O)c2)CCN1c1ccc(C(F)(F)F)nc1` [Cpd No 20-4, (R)-(4-(3-isopropyl-4-(6-(trifluoromethyl)pyridin-3-yl)piperazin-1-yl)-2-(methylsulfonyl)phenyl)methanol], at LXR β LBD protein (read-out: LXRβ Binding Ki), the Ki turned out to be 20 nM. The molecule also showed an EC50 in test [2] of 28 nM. Further, the “Cell LXRβ efficacy” value in test [2] (agonist mode) was 28 (105) %.

(Values after patent US10144715B2, “Piperazine derivatives as liver X receptor modulators” (priority 2014, dated 2018).)
